Data from PubChem BioAssay AID1645863 (Buhrlage Lab, Dana-Farber Cancer Institute and Novartis …, 2021).
Activity calls are given as the source filed them. How the calls were made is not given here.

Target: Ubiquitin carboxyl-terminal hydrolase 10 (Homo sapiens) (UniProt Q14694)
Assay: primary hit verification, biochemical, ubiquitin-specific protease 10 deubiquitylase inhibitors, concentration-effect titration (AID 1645863);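 further: potency values describe inhibition of USP10 cleavage of a fluorogenic ubiquitin substrate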
Details: USP10 deubiquitinase enzymatic assay

Sequence of Ubiquitin carboxyl-terminal hydrolase 10 (Homo sapiens) (Q14694 whole entry, looked up): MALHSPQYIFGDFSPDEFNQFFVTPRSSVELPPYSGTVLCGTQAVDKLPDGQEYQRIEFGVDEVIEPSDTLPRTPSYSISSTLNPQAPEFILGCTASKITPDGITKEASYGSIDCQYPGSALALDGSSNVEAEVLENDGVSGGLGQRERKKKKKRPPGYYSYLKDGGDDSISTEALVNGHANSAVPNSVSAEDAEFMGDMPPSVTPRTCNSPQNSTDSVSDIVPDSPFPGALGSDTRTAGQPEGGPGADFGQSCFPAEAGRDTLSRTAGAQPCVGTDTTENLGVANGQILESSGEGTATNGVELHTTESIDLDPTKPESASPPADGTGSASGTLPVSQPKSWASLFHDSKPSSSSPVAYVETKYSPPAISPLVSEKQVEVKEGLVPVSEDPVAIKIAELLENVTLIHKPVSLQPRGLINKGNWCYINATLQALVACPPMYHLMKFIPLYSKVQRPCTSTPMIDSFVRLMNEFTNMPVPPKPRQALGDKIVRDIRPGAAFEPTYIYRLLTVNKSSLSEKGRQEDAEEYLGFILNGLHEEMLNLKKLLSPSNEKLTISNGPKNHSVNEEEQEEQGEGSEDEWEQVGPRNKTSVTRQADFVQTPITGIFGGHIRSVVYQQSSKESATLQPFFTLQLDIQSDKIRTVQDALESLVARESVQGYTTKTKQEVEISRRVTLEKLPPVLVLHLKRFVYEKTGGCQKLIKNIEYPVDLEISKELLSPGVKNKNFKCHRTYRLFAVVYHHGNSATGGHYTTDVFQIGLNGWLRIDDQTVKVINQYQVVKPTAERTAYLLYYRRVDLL

Row | SMILES | IC50
1 | CCc1ccc(-n2c(C)cc(/C=C3\C(=N)N4N=CSC4=NC3=O)c2C)cc1 | > 40 µM (inactive)
2 | Cc1ccc2c(CNCCC3=CCCCC3)c(C(=O)O)n(C)c2c1 | > 40 µM (inactive)
3 | Cc1ccc(NC(=O)Cn2cncc(-c3nc(-c4ccccc4)cs3)c2=O)cc1F | 22.9 µM
4 | O=C(NCC1(c2ccccc2)CCC1)c1nc2n(n1)-c1ccccc1S(=O)(=O)N2 | 12.8 µM
5 | CC(C)CCCCCCCCCCC(=O)N(C)[C@H](CO)C(=O)N[C@H](C)C(=O)NCC(=O)N(C)C1C(=O)N[C@@H](C)C(=O)NC(C(=O)O)Cc2ccc(O)c(c2)-c2cc1ccc2O (stereo not given in full) | 34.4 µM
6 | CC(=O)c1cccc(NC(=O)COC(=O)c2sc3cc(F)ccc3c2Cl)c1 | > 40 µM (inactive)
7 | COc1cc2c(c(OCC(=O)Nc3ccc4c(c3)OCCO4)c1)C(=O)O[C@@H](C)CCCC(=O)CCCCC2 | 31.5 µM
8 | COc1ccccc1CNC(=O)C1c2ccccc2C(=O)N1Cc1ccccc1C (stereo not given) | > 40 µM (inactive)
9 | COc1ccc(-c2cc(-c3ccccc3)nc(SCC(N)=O)c2C#N)cc1OC | 21.6 µM
10 | COc1cc(OC)c(NC(=O)c2cc(-c3ccccn3)n[nH]2)cc1Cl | 28.9 µM
11 | O=c1[nH]c(C2CCN(S(=O)(=O)c3ccc(S(=O)(=O)N4CCOCC4)cc3)CC2)nc2c1nnn2Cc1ccc(F)cc1 | > 40 µM (inactive)
12 | COc1ccc(C(=O)COC(=O)c2ccccc2NS(=O)(=O)c2ccc(O)c([N+](=O)[O-])c2)cc1 | 9.78 µM
13 | COc1ccccc1C(=O)Nc1ccc(-c2nc3ccccc3o2)c(O)c1 | > 40 µM (inactive)
14 | Cc1ccc([N+](=O)[O-])cc1S(=O)(=O)Nc1cc2sc(=O)oc2c2ccccc12 | > 40 µM (inactive)
15 | CC1=CC(=O)C(C2=C(O)C(=O)C(C)=CC2=O)=C(O)C1=O | 12 µM
16 | Cc1nc(SCC(=O)NC(C)c2ccccc2)c2oc3ccccc3c2n1 (stereo not given) | > 40 µM (inactive)
17 | CC(CCc1ccccc1)NC(=O)Cn1c(=O)c2cccn2c2ccccc21 (stereo not given) | > 40 µM (inactive)
18 | COc1ccc(C)cc1NC(=O)C1CC(=O)Nc2nc3ccccc3n21 (stereo not given) | 28.1 µM
19 | O=c1c2ccccc2oc2nc(-c3cccs3)n(-c3ccccc3)c(=O)c12 | 16.6 µM
20 | Cc1ccc2c(c1)N=C(c1ccc([N+](=O)[O-])cc1)CO2 | > 40 µM (inactive)
21 | Cc1ccc(NC(=O)c2nnn(CC(=O)Nc3cccc(C)c3C)c2N)cc1C | 18.1 µM
22 | O=C(CCc1ccc(S(=O)(=O)N2CCOCC2)cc1)OCC(=O)c1ccc(-c2ccccc2)cc1 | 38.8 µM
23 | CCC(C(=O)C(C)C(O)C(C)CCc1ccc(C)c(O)c1C(=O)O)C1OC(CC)(C2CCC(O)(CC)C(C)O2)CC1C (stereo not given) | 9.99 µM

Row | SMILES | IC50
24 | COc1cc2cc3c(c(O)c2c(O)c1-c1c(OC)cc2cc4c(c(O)c2c1O)C(=O)OC1CC(C)OC41)C(=O)OC1CC(C)OC31 (stereo not given) | 9.21 µM
25 | Nc1ncnc2c1ncn2[C@@H]1O[C@H](CO)C[C@@H]1O | 24.9 µM
26 | O=C(Cn1cnc(-c2noc(-c3cccc(F)c3)n2)c1)Nc1ccccc1 | 39.8 µM
27 | Cc1cc(C(F)(F)F)n2nc(C3CCN(C(=O)c4cnn(C)c4C)C3)cc2n1 (stereo not given) | > 40 µM (inactive)
28 | C=C/C(=C/C(=O)C[C@H](C)C[C@@H](C)CC[C@H](O)[C@H](C)C(=O)CC(O)[C@H](C)[C@@H](C)OC(=O)C[C@@H](O)C1=C(C)C(=O)OC1=O)CC (stereo not given in full) | 9.16 µM
29 | Cc1ccnc(NS(=O)(=O)c2ccc(NC(=O)c3ccc(S(=O)(=O)N(C)Cc4ccccc4)cc3)cc2)n1 | 35.4 µM
30 | O=S1(=O)CCN(Cc2c(F)cccc2F)c2c(F)nc(N3CCOCC3)c(F)c21 | > 40 µM (inactive)
31 | COc1cc(C)cc2c1C(=O)c1c(cc(O)c(Cl)c1O)C2=O | 4.38 µM
32 | Cc1ccccc1NC(=O)Cc1csc2nc(-c3ccc(F)cc3)cn12 | > 40 µM (inactive)
33 | COc1ccc(-c2cc3c(=O)n(CC(=O)Nc4ccccc4C)ccn3n2)cc1 | > 40 µM (inactive)
34 | COCCCN1CCS(=O)(=O)c2c(Cl)c(F)nc(Oc3ccc(C#N)cc3)c21 | > 40 µM (inactive)
35 | CC[C@@H](C(=O)[C@@H](C)[C@@H](O)[C@H](C)CCc1ccc(C)c(O)c1C(=O)O)[C@@H]1O[C@](CC)([C@H]2CC[C@](O)(CC)[C@H](C)O2)C[C@@H]1C | 12.4 µM
36 | Cc1ccc(-n2cc(C(=O)NCCCc3ccccc3)nn2)cc1 | 29.5 µM
37 | O=C(NCc1ccc2c(c1)OCO2)c1cc2c(s1)-c1ccccc1OC2 | > 40 µM (inactive)
38 | COc1ccc(-n2c(=O)c3ccc(C(=O)NCCc4ccccc4)cc3n(CC(=O)NCc3ccco3)c2=O)cc1 | > 40 µM (inactive)
39 | COc1cccc2c1NC(=O)C21CCN(C(=O)Nc2cccc3ccccc23)CC1 | > 40 µM (inactive)
40 | Cc1ccc(Cn2c(=O)c3ncccc3n(CC(=O)NCc3ccc(F)cc3)c2=O)cc1 | 26.1 µM
41 | COc1cccc(C(=O)Nc2nc(-c3nnn(-c4ccc(C)c(F)c4)c3C)ns2)c1 | > 40 µM (inactive)
42 | O=C(CSc1nnc2c3ccccc3nc(-c3ccco3)n12)N1CCCc2ccccc21 | 3.82 µM
43 | O=C(c1ccc2cc[nH]c2c1)N1CCC(Nc2cccnc2)C1 (stereo not given) | > 40 µM (inactive)
44 | COc1ccc(NC(=O)Cn2c(=O)n(CCCC(=O)NCCc3ccc(OC)c(OC)c3)c(=O)c3ccccc32)cc1Cl | > 40 µM (inactive)
45 | CCOc1ccc(-c2noc(-c3nn(-c4cccc(OC)c4)ccc3=O)n2)cc1 | > 40 µM (inactive)
46 | COCC(=O)N1CCC(n2c(C3CC3)nc3sc(C)c(C)c3c2=O)CC1 | > 40 µM (inactive)

Row | SMILES | IC50
47 | Cc1ccc(-n2nc(C)c3c2NC(=O)CC3C(=O)c2cc3ccccc3o2)cc1 (stereo not given) | > 40 µM (inactive)
48 | CCCCCCCc1cc(OC(=O)c2c(CCCCCCC)cc(O)cc2O[C@@H]2O[C@H](CO)[C@H](O)[C@H](O)[C@H]2O)cc(O)c1C(=O)O | 5.17 µM
49 | CC1CCCN(S(=O)(=O)c2ccc(-n3cnc(C(=O)NC4CC4)c3)nc2)C1 (stereo not given) | 23.2 µM
50 | COC(=O)c1ccccc1NC(=O)Cn1c(=O)n(CCCC(=O)NCc2ccco2)c(=O)c2ccccc21 | 13 µM
51 | CCC(=O)Nc1nc2cc(NC(=O)Nc3ccc(C)cc3)ccc2s1 | > 40 µM (inactive)
52 | Cc1cc(NS(=O)(=O)c2ccc(NC(=O)COc3ccc(Cl)cc3)cc2)no1 | > 40 µM (inactive)
53 | O=C(NCCc1ccccc1)c1ccc2c(=O)n(Cc3ccco3)c(=O)n(Cc3cccc([N+](=O)[O-])c3)c2c1 | 8.37 µM
54 | COCCCn1c(C(=O)NCc2ccccc2)cc2c(=O)n3ccccc3nc21 | > 40 µM (inactive)
55 | CCc1ccc(NC(=O)C(C)OC(=O)/C=C/c2ccc(S(=O)(=O)Nc3cccc(S(N)(=O)=O)c3)cc2)cc1 (stereo not given) | 21.7 µM
56 | Cc1ccc(C)c(Cn2cnc3c(nnn3-c3cccc(F)c3)c2=O)c1 | > 40 µM (inactive)
57 | COc1cc(NC(=O)Cc2ccccc2)ccc1NC(=O)c1cc2ccccc2o1 | 28.1 µM
58 | O=C(CCc1ccc(F)cc1)N1CCOC(CCc2cc(=O)[nH]cn2)C1 (stereo not given) | > 40 µM (inactive)
59 | Cn1c(=O)c(C(=O)Nc2ccc(Br)cc2)nc2ccccc21 | 26.5 µM
60 | O=C(Nc1ccccc1)Nc1ccc(F)c(-c2nnc(-c3ccccc3)o2)c1 | > 40 µM (inactive)
61 | OC1CCCN(c2ncc(-c3cnccn3)c(-c3cccs3)n2)C1 (stereo not given) | > 40 µM (inactive)
62 | COc1ccc(-c2n[nH]n3c2nc(=O)c2ccc(C(=O)NCc4ccco4)cc23)cc1 | > 40 µM (inactive)
63 | COc1ccc(S(=O)(=O)NC2CC(=O)N(c3ccc(Cl)cc3)C2)cc1 (stereo not given) | > 40 µM (inactive)
64 | Cc1ccc(CNC(=O)c2cccc(N3C(=O)N4CCc5c([nH]c6ccccc56)[C@@]4(C)C3=O)c2)cc1 | > 40 µM (inactive)
65 | COc1cc(Cl)c(C)cc1NC(=O)Cn1c(=O)n(CC(=O)NCc2ccco2)c(=O)c2ccccc21 | 16.3 µM
66 | N#Cc1ccc(NC(=O)Nc2cccn(Cc3c(F)cccc3Cl)c2=O)cc1 | > 40 µM (inactive)
67 | CS(=O)(=O)NC1CCCN(C(=O)Nc2cccc3ccccc23)C1 (stereo not given) | > 40 µM (inactive)
68 | COc1ccccc1CNC(=O)Cn1cnc2c(-c3ccccc3)csc2c1=O | > 40 µM (inactive)
69 | COc1ccc(C2/C(=C(\O)c3ccccc3)C(=O)C(=O)N2c2nc3ccc(F)cc3s2)cc1 (stereo not given) | 8.94 µM

Row | SMILES | IC50
70 | O=C(Cn1cc(C(=O)C(F)(F)F)c2cc(Br)ccc21)N1CCc2ccccc21 | 35.6 µM
71 | COc1ccc(-c2cc3c(=O)n(CC(=O)NCc4ccccc4)ncn3n2)cc1 | > 40 µM (inactive)
72 | Cc1ccc(-n2c(=O)[nH]c3c(C(N)=O)nc(-c4ccc(OCc5ccccc5)cc4)nc32)cc1 | > 40 µM (inactive)
73 | O=C(COc1ccc(N2CC(C(=O)NCc3ccccc3)CC2=O)cc1)Nc1ccc(F)cc1 (stereo not given) | > 40 µM (inactive)
74 | COc1ccc(OC)c(-c2cn3ccn(-c4ccc(F)c(Cl)c4)c(=O)c3n2)c1 | 18.7 µM
75 | O=C(c1ccco1)N1CCCC1c1nc(-c2ccccc2)n[nH]1 (stereo not given) | > 40 µM (inactive)
76 | O=C(/C=C/c1ccco1)N1CCC(Cn2cccn2)CC1 | > 40 µM (inactive)
77 | CCc1nc(SCC(=O)Nc2cc(Cl)ccc2C)c2oc3ccccc3c2n1 | 1.14 µM
78 | CC(C)Cc1ccc(-c2cc(-c3ccc(C(F)(F)F)cc3)c(C#N)c(=O)[nH]2)cc1 | 9.8 µM
79 | O=C(COc1ccc(N2CC(C(=O)NCc3ccc4c(c3)OCO4)CC2=O)cc1)Nc1ccc(F)cc1 (stereo not given) | 20.8 µM
80 | COCCCN1CCS(=O)(=O)c2c(Cl)c(F)nc(Oc3ccccc3F)c21 | > 40 µM (inactive)
81 | O=C(Oc1ccc2cc(Br)ccc2c1)c1ccncc1 | > 40 µM (inactive)
82 | Cc1cc(NC(=O)CSc2ncc(-c3cccc([N+](=O)[O-])c3)n2-c2cccc(Cl)c2)no1 | > 40 µM (inactive)
83 | Cc1nn(-c2ccccc2)c2c1nc(CCC(=O)NC1CCCCC1)c(=O)n2C | > 40 µM (inactive)
84 | CCOc1ccc2c(c1)c(=O)c(C(=O)c1ccc(F)cc1)cn2CC(=O)Nc1ccccc1 | > 40 µM (inactive)
85 | Cc1sc2ccn(C)c(=O)c2c1C(=O)NC1CCCC1 | 27.5 µM
86 | COc1ccc(NC(=O)Cn2c(=O)n(CCC(=O)NCc3ccccc3)c(=O)c3sccc32)cc1Cl | > 40 µM (inactive)
87 | COc1ccc(NC(=O)Cn2cc(C(=O)c3ccccc3)c(=O)c3cc(Cl)ccc32)cc1OC | 22.8 µM
88 | Cc1cc(=O)n(CC(=O)Nc2ccc3c(c2)OCO3)c2c1c(-c1ccccc1)nn2-c1ccccc1 | > 40 µM (inactive)
89 | COc1ccc(Nc2nnc(Cc3ccc(Cl)cc3)c(=O)[nH]2)cc1 | 18.7 µM
90 | CCOc1ccc2c(c1)c(=O)c(C(=O)c1ccccc1)cn2CC(=O)Nc1ccc(OC)cc1 | > 40 µM (inactive)
